Our source for the SUMO and c-Myc values is US11578079B2, “SUMO inhibitor compounds and uses thereof” (CITY OF HOPE, priority 2018, dated 2023).

One assay has as its target T1, SUMO (Homo sapiens, UniProt Q9UBT2).
T1 sequence (Q9UBT2 1-640): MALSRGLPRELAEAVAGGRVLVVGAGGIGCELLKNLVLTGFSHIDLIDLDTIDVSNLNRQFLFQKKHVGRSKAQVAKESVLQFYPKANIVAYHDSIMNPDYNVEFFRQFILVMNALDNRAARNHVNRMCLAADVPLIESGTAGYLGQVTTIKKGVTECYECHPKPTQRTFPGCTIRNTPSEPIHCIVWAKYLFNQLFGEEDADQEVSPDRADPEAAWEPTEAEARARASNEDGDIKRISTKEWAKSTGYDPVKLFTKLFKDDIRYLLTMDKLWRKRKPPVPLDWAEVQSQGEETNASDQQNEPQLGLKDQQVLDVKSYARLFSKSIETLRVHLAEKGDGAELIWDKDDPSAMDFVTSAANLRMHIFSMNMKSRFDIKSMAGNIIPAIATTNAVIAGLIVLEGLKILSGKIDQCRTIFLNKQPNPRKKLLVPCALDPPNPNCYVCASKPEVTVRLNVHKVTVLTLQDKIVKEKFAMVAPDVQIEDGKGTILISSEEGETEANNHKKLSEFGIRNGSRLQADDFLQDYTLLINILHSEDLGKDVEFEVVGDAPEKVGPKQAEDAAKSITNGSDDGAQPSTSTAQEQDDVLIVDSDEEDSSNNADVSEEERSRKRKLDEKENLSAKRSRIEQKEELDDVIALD
T1 sequence (Q9UBE0 1-346 partner): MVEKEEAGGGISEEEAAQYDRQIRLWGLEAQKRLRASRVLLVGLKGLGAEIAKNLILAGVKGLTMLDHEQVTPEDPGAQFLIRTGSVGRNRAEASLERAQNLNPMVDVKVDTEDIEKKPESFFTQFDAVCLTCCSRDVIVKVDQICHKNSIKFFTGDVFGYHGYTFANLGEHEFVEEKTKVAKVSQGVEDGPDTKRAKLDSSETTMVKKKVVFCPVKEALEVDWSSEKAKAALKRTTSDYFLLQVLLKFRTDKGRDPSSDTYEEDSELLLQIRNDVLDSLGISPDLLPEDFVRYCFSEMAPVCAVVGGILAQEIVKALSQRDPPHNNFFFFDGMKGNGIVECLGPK
In words: SUMO activity (Table I, biological activities). In kind it is biochemical. More on the design: key: + (less active); ++ (active); +++ (most active).

The subject of another assay is c-Myc. In words: c-Myc activity (Table I, biological activities). The arrangement: key: + (less active); ++ (active); +++ (most active).

With `CCN(CC)CCNC(=O)C1=C(C(=O)OC)C2(C(Cc3ccc(F)cc3)Nc3cc(F)cc(Cl)c3)C=CC1O2` (centres unmarked) [Compound 453], the SUMO entry on SUMO is recorded as “++”. Further, the c-Myc entry in the assay with c-Myc was “+”.
For `COC(=O)C1=C(C(=O)NCCCN(C)C)C2C=CC1(C(Cc1ccccc1)Nc1ccccc1)O2` (centres unmarked) [Compound 389] the same measures were “++” and “+”.
For `CCOC(=O)C1=C(C(=O)Nc2ccc(C)c(F)c2)C2C=CC1(C(Nc1cccc(OC)c1)c1ccc(CN3CCOCC3)cc1)O2` (centres unmarked) [Compound 615] the same measures were “+” and “+”.
For `CCOC(=O)C1=C(C(=O)N(C)C)C2C=CC1(C(Nc1ccccc1)c1ccc(CN3CCOCC3)cc1)O2` (centres unmarked) [Compound 590], in that order: “+” and “+”.
`COC(=O)C1=C(C(=O)Nc2cccnc2)C2C=CC1(C(Cc1ccccc1)Nc1ccccc1)O2` (centres unmarked) [Compound 223]: the SUMO result at SUMO is “++”. Moreover, in the assay on c-Myc, the c-Myc result is “+”.
For `COC(=O)C1=C(C(=O)NNc2ccc(F)c(F)c2)C2(C(Cc3ccccc3)Nc3cc(F)cc(F)c3)C=CC1O2` (centres unmarked) [Compound 315] the same measures were “++” and “+”.
Consider `CCOC(=O)C1=C(C(=O)Nc2cccnc2)C2C=CC1(C(Nc1ccccc1)c1ccc(CN3CCOCC3)cc1)O2` (centres unmarked) [Compound 550], for which, at SUMO, the SUMO entry is reported as “+++”. Besides, in the assay with c-Myc, the c-Myc result is reported as “+”.
Regarding `COC(=O)C1=C(C(=O)Nc2ccc(C)c(F)c2)C2C=CC1(C(Cc1ccccc1)Nc1cc(F)cc(Cl)c1)O2` (centres unmarked) [Compound 348], at SUMO, the SUMO result was “++”. The c-Myc entry in the assay with c-Myc is reported as “+”.
Consider `COC(=O)C1=C(C(=O)NC2CCN(Cc3ccccc3)CC2)C2CCC1(C(Cc1ccccc1)Nc1ccccc1)O2` (centres unmarked) [Compound 369], for which the SUMO result at SUMO is on record as “+”. The c-Myc result in the assay with c-Myc is “+”.
On to `CCN(CC)CCNC(=O)C1=C(C(=O)OC)C2(C(Cc3ccccc3)Nc3cccc(F)c3)C=CC1O2` (centres unmarked) [Compound 421], for which the SUMO result at SUMO is reported as “++”. The c-Myc entry in the assay on c-Myc is reported as “++”.
As for `COC(=O)C1=C(C(=O)Nc2ccccc2)C2C=CC1(C(Cc1ccccc1)Nc1ccccc1)O2` (centres unmarked) [Compound 300], on SUMO, the SUMO result is “+++”. Moreover, in the assay on c-Myc, the c-Myc result is “+”.
Turning to `CCN(CC)CCNC(=O)C1=C(C(=O)OC)C2(C(Cc3ccc(C(F)(F)F)cc3)Nc3ccccc3)C=CC1O2` (centres unmarked) [Compound 424], on SUMO, the SUMO result is listed as “++”. The c-Myc entry with c-Myc is “++”.
Take `COC(=O)C1=C(C(=O)NC2CCN(Cc3ccccc3)CC2)C2C=CC1(C(Cc1ccccc1)Nc1ccccc1)O2` (centres unmarked) [Compound 288]: the SUMO result at SUMO is recorded as “++”. The c-Myc result in the assay on c-Myc is “++”.
Turning to `COC(=O)C1=C(C(=O)NC2CCN(C(=O)C3CCN(C)CC3)CC2)C2C=CC1(C(Cc1ccccc1)Nc1ccccc1)O2` (centres unmarked) [Compound 378], the SUMO entry at SUMO is “++”. Moreover, the c-Myc result with c-Myc was “+”.
For the compound `CCOC(=O)C1=C(C(=O)Nc2c(C)cccc2CC)C2C=CC1(C(Nc1ccccc1)c1ccc(CN3CCOCC3)cc1)O2` (centres unmarked) [Compound 617], at SUMO, the SUMO entry was “++”. Besides, the c-Myc result in the assay with c-Myc is given as “++”.
As for `CCOC(=O)C1=C(C(=O)Nc2ccc(CN(C)C)cc2)C2C=CC1(C(Nc1ccccc1)c1ccc(CN3CCOCC3)cc1)O2` (centres unmarked) [Compound 565], the SUMO result at SUMO is “+”. In the assay with c-Myc, the c-Myc entry is reported as “+”.
Take `CNC(=O)C1=C(C(=O)Nc2ccccc2)C2C=CC1(C(Cc1ccccc1)Nc1ccccc1)O2` (centres unmarked) [Compound 305]: the SUMO result on SUMO is “+”. The c-Myc entry with c-Myc was “+”.
For the compound `COC(=O)C1=C(C(=O)OC)C2(C(Cc3ccccc3)Nc3c(F)cccc3F)C=CC1O2` (centres unmarked) [Compound 169], the SUMO result at SUMO is given as “++”. The c-Myc entry in the assay on c-Myc is “+”.
For `COC(=O)C1=C(C(=O)NNc2ccc(F)c(F)c2)C2C=CC1(C(Cc1ccccc1)Nc1cc(F)cc(F)c1)O2` (centres unmarked) [Compound 314], in that order: “++” and “+”.
As to `COC(=O)C1=C(C(=O)OC)C2(C(Cc3ccccc3)Nc3cccc(F)c3)C=CC1O2` (centres unmarked) [Compound 417], at SUMO, the SUMO entry is reported as “++”. Moreover, in the assay on c-Myc, the c-Myc entry is “+”.
For `COC(=O)C1=C(C(=O)NC2CCN(C)C2)C2C=CC1(C(Cc1ccccc1)Nc1ccccc1)O2` (centres unmarked) [Compound 239] the same measures were “+++” and “+”.
Consider `COC(=O)C1=C(C(=O)NC2CCN(C)C2)C2C=CC1(C(Cc1ccccc1)Nc1ccc(F)cc1)O2` (centres unmarked) [Compound 263], for which the SUMO entry at SUMO is given as “+++”. Also, the c-Myc result in the assay on c-Myc is listed as “++”.
For `COC(=O)C1=C(C(=O)Nc2ccc(OC)cc2)C2C=CC1(C(Cc1ccccc1)Oc1ccccc1)O2` (centres unmarked) [Compound 325], in that order: “++” and “++”.
Turning to `CCOC(=O)C1=C(C(=O)NC2CCN(C)CC2)C2C=CC1(C(Cc1ccccc1)Nc1ccc(F)cc1F)O2` (centres unmarked) [Compound 329], the SUMO result on SUMO is on record as “+++”. Besides, the c-Myc result in the assay on c-Myc is “++”.
For `COC(=O)C1=C(C(=O)OC)C2(C(Cc3ccccc3)Nc3cc(F)cc(F)c3)C=CC1O2` (centres unmarked) [Compound 167], in that order: “++” and “+”.
For `COC(=O)C1=C(C(=O)NC2CCN(S(C)(=O)=O)CC2)C2C=CC1(C(Cc1ccccc1)Nc1ccccc1)O2` (centres unmarked) [Compound 361], in that order: “++” and “+”.
In the case of `COC(=O)C1=C(C(=O)Nc2ccc(OCCN(C)C)cc2)C2C=CC1(C(Cc1ccccc1)Nc1ccccc1)O2` (centres unmarked) [Compound 491], the SUMO entry at SUMO is on record as “+++”. In the assay with c-Myc, the c-Myc result is reported as “+”.
For the compound `COC(=O)C1=C(C(=O)Nc2ccc(CN3CCN(C)CC3)cc2)C2C=CC1(C(Cc1ccccc1)Nc1ccccc1)O2` (centres unmarked) [Compound 504], the SUMO entry on SUMO is “++”. For the same compound, the c-Myc result in the assay on c-Myc is given as “+”.
For the compound `COC(=O)C1=C(C(=O)Nc2ccccc2)C2C=CC1(C(Cc1ccccc1)Nc1ccccc1)O2` (centres unmarked) [Compound 163], the SUMO result on SUMO was “++”. The c-Myc entry with c-Myc is “+”.
With `COC(=O)C1=C(C(=O)OC)C2(C(Cc3ccccc3)Nc3cccc(Oc4ccccc4)c3)C=CC1O2` (centres unmarked) [Compound 307], the SUMO entry at SUMO was “+++”. The c-Myc entry in the assay on c-Myc is “+”.
`COC(=O)C1=C(C(=O)NC2CCCCC2)C2C=CC1(C(Cc1ccccc1)Nc1ccccc1)O2` (centres unmarked) [Compound 160]: the SUMO result at SUMO is recorded as “+”. For the same compound, the c-Myc result with c-Myc is “+”.
For `CCOC(=O)C1=C(C(=O)Nc2ccc(C)c(F)c2)C2C=CC1(C(Nc1cccc(C)c1)c1ccc(CN3CCOCC3)cc1)O2` (centres unmarked) [Compound 623], the SUMO entry on SUMO is given as “++”. Moreover, the c-Myc result in the assay on c-Myc was “+”.
`COC(=O)C1=C(C(=O)NC2CCN(C)CC2)C2C=CC1(C(Cc1ccccc1)Nc1ccccc1F)O2` (centres unmarked) [Compound 272]: the SUMO result at SUMO is given as “++”. In addition, the c-Myc entry with c-Myc was “+”.
For `COC(=O)C1=C(C(=O)OC)C2(C(Cc3ccccc3)N(C(=O)C(F)(F)F)c3ccccc3)OC1C1=C2O1` (centres unmarked) [Compound 555] the same measures were “+” and “+”.
Turning to `COC(=O)C1=C(C(N)=O)C2C=CC1(C(Cc1ccccc1)Nc1ccccc1)O2` (centres unmarked) [Compound 274], the SUMO entry at SUMO is reported as “+++”. Also, in the assay on c-Myc, the c-Myc result is listed as “++”.
Turning to `CCN(CC)CCNC(=O)C1=C(C(=O)OC)C2(C(Cc3ccccc3)Nc3cc(F)cc(F)c3)C=CC1O2` (centres unmarked) [Compound 400], the SUMO entry at SUMO is listed as “++”. For the same compound, in the assay with c-Myc, the c-Myc result is recorded as “++”.
Regarding `COC(=O)C1=C(C(=O)Nc2ccc(F)cc2)C2C=CC1(C(Cc1ccccc1)Nc1ccccc1)O2` (centres unmarked) [Compound 166], on SUMO, the SUMO entry is reported as “++”. Also, the c-Myc result in the assay on c-Myc was “+”.
In the case of `COC(=O)C1=C(C(=O)NC2CCN(C(=O)c3ccc(F)cc3)CC2)C2C=CC1(C(Cc1ccccc1)Nc1ccccc1)O2` (centres unmarked) [Compound 297], at SUMO, the SUMO entry is on record as “++”. Moreover, the c-Myc entry with c-Myc is recorded as “++”.
Consider `COC(=O)C1=C(C(=O)NCCN2CCC2)C2C=CC1(C(Cc1ccccc1)Nc1ccccc1)O2` (centres unmarked) [Compound 469], for which the SUMO result on SUMO is “++”. For the same compound, the c-Myc result in the assay with c-Myc was “+”.
For `CCOc1cccc(NC(Cc2ccccc2)C23C=CC(O2)C(C(=O)Nc2ccncc2)=C3C(=O)OC)c1` (centres unmarked) [Compound 253], in that order: “++” and “+”.
Consider `CCOc1cccc(NC(Cc2ccccc2)C23C=CC(O2)C(C(N)=O)=C3C(=O)OC)c1` (centres unmarked) [Compound 249], for which the SUMO result on SUMO is “++”. The c-Myc entry in the assay on c-Myc was “+”.
For `COC(=O)C1=C(C(=O)NC2CN(C(=O)OC(C)(C)C)C2)C2C=CC1(C(Cc1ccccc1)Nc1ccccc1)O2` (centres unmarked) [Compound 404], in that order: “++” and “+”.
Take `COC(=O)C1=C(C(=O)NC(C)(C)C)C2C=CC1(C(Cc1ccccc1)Nc1ccccc1)O2` (centres unmarked) [Compound 161]: the SUMO result at SUMO was “+”. Also, the c-Myc result in the assay on c-Myc is given as “+”.
